PubChem BioAssay (NCI)
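Grown in 96-well plates, cells were treated for 48 hours with each compound at five concentrations. Insufficient inhibition: endpoint recorded as highest concentration tested. At the TGI there is no net growth.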

Columns and labels:
Assay in all cases: DTP human tumour cell line panel, 48 h
786-0 renal = tested on: 786-0 renal
A498 renal = tested on: A498 renal
A549 NSCLC = tested on: A549 NSCLC
ACHN renal = tested on: ACHN renal
CAKI-1 renal = tested on: CAKI-1 renal
CCRF-CEM leukemia = tested on: CCRF-CEM leukemia
COLO 205 colon = tested on: COLO 205 colon
DLD-1 colon = tested on: DLD-1 colon
DMS 114 small cell lung = tested on: DMS 114 small cell lung
DMS 273 small cell lung = tested on: DMS 273 small cell lung
HCC-2998 colon = tested on: HCC-2998 colon
HCT-116 colon = tested on: HCT-116 colon
HCT-15 colon = tested on: HCT-15 colon
HOP-18 NSCLC = tested on: HOP-18 NSCLC
HOP-62 NSCLC = tested on: HOP-62 NSCLC
HOP-92 NSCLC = tested on: HOP-92 NSCLC
HT29 colon = tested on: HT29 colon
IGROV1 ovarian = tested on: IGROV1 ovarian
K-562 leukemia = tested on: K-562 leukemia
KM12 colon = tested on: KM12 colon
LOX IMVI melanoma = tested on: LOX IMVI melanoma
LXFL 529 NSCLC = tested on: LXFL 529 NSCLC
M14 melanoma = tested on: M14 melanoma
M19-MEL melanoma = tested on: M19-MEL melanoma
MALME-3M melanoma = tested on: MALME-3M melanoma
MOLT-4 leukemia = tested on: MOLT-4 leukemia
NCI-H226 lung = tested on: NCI-H226 lung
NCI-H23 lung = tested on: NCI-H23 lung
NCI-H460 lung = tested on: NCI-H460 lung
NCI-H522 lung = tested on: NCI-H522 lung
OVCAR-3 ovarian = tested on: OVCAR-3 ovarian
OVCAR-4 ovarian = tested on: OVCAR-4 ovarian
OVCAR-5 ovarian = tested on: OVCAR-5 ovarian
OVCAR-8 ovarian = tested on: OVCAR-8 ovarian
RPMI-8226 leukemia = tested on: RPMI-8226 leukemia
RXF 393 renal = tested on: RXF 393 renal
RXF-631 renal = tested on: RXF-631 renal
SF-268 CNS = tested on: SF-268 CNS
SF-295 CNS = tested on: SF-295 CNS
SF-539 CNS = tested on: SF-539 CNS
SK-MEL-2 melanoma = tested on: SK-MEL-2 melanoma
SK-MEL-28 melanoma = tested on: SK-MEL-28 melanoma
SK-MEL-5 melanoma = tested on: SK-MEL-5 melanoma
SN12C renal = tested on: SN12C renal
SNB-19 CNS = tested on: SNB-19 CNS
SNB-75 CNS = tested on: SNB-75 CNS
SR leukemia = tested on: SR leukemia
SW-620 colon = tested on: SW-620 colon
TK-10 renal = tested on: TK-10 renal
U251 CNS = tested on: U251 CNS
UACC-257 melanoma = tested on: UACC-257 melanoma
UACC-62 melanoma = tested on: UACC-62 melanoma
UO-31 renal = tested on: UO-31 renal
XF 498 CNS = tested on: XF 498 CNS
EKVX NSCLC = tested on: EKVX NSCLC
HL-60(TB) leukemia = tested on: HL-60(TB) leukemia
KM20L2 colon = tested on: KM20L2 colon
SK-OV-3 ovarian = tested on: SK-OV-3 ovarian
SNB-78 CNS = tested on: SNB-78 CNS

## COc1cccc(/C=C2\CCC(CCN(C)C)(C3=CCCC3)C2=O)c1 (stereo not given)
786-0 renal
  TGI: 27.9 µM
A498 renal
  TGI: 30.8 µM
A549 NSCLC
  TGI: 32.6 µM
ACHN renal
  TGI: 30.5 µM
CAKI-1 renal
  TGI: 25.2 µM
CCRF-CEM leukemia
  TGI: 40.8 µM
COLO 205 colon
  TGI: 21.3 µM
DLD-1 colon
  TGI: 36.4 µM
DMS 114 small cell lung
  TGI: 31.4 µM
DMS 273 small cell lung
  TGI: 28 µM
HCC-2998 colon
  TGI: 30.4 µM
HCT-116 colon
  TGI: 27.7 µM
HCT-15 colon
  TGI: 31.1 µM
HOP-18 NSCLC
  TGI: 27.2 µM
HOP-62 NSCLC
  TGI: 32 µM
HOP-92 NSCLC
  TGI: 28.6 µM
HT29 colon
  TGI: 29.2 µM
IGROV1 ovarian
  TGI: 32.5 µM
K-562 leukemia
  TGI: 36 µM
KM12 colon
  TGI: 31 µM
LOX IMVI melanoma
  TGI: 30.2 µM
LXFL 529 NSCLC
  TGI: 28.9 µM
M14 melanoma
  TGI: 27.4 µM
M19-MEL melanoma
  TGI: 30 µM
MALME-3M melanoma
  TGI: 31.2 µM
MOLT-4 leukemia
  TGI: 34.1 µM
NCI-H226 lung
  TGI: 31.2 µM
NCI-H23 lung
  TGI: 41.4 µM
NCI-H460 lung
  TGI: 29.9 µM
NCI-H522 lung
  TGI: 26.9 µM
OVCAR-3 ovarian
  TGI: 34 µM
OVCAR-4 ovarian
  TGI: 30.5 µM
OVCAR-5 ovarian
  TGI: 28.1 µM
OVCAR-8 ovarian
  TGI: 32.1 µM
RPMI-8226 leukemia
  TGI: 41.7 µM
RXF 393 renal
  TGI: 21.7 µM
RXF-631 renal
  TGI: 43.4 µM
SF-268 CNS
  TGI: 45.6 µM
SF-295 CNS
  TGI: 31.1 µM
SF-539 CNS
  TGI: 29.7 µM
SK-MEL-2 melanoma
  TGI: 29.9 µM
SK-MEL-28 melanoma
  TGI: 31.3 µM
SK-MEL-5 melanoma
  TGI: 32.4 µM
SN12C renal
  TGI: 28.6 µM
SNB-19 CNS
  TGI: 31.1 µM
SNB-75 CNS
  TGI: 35 µM
SR leukemia
  TGI: 57.4 µM
SW-620 colon
  TGI: 27.1 µM
TK-10 renal
  TGI: 29.3 µM
U251 CNS
  TGI: 30.6 µM
UACC-257 melanoma
  TGI: 28.8 µM
UACC-62 melanoma
  TGI: 30 µM
UO-31 renal
  TGI: 26.5 µM
XF 498 CNS
  TGI: 31.9 µM

## COc1ccc(NC(=O)/C(Cc2nc3ccccc3[nH]c2=O)=N\O)c(OC)c1
786-0 renal
  TGI: > 100 µM
A498 renal
  TGI: > 100 µM
A549 NSCLC
  TGI: > 100 µM
ACHN renal
  TGI: > 100 µM
CAKI-1 renal
  TGI: > 100 µM
CCRF-CEM leukemia
  TGI: > 100 µM
COLO 205 colon
  TGI: > 100 µM
DLD-1 colon
  TGI: > 100 µM
DMS 114 small cell lung
  TGI: > 100 µM
EKVX NSCLC
  TGI: > 100 µM
HCC-2998 colon
  TGI: > 100 µM
HCT-116 colon
  TGI: > 100 µM
HCT-15 colon
  TGI: > 100 µM
HL-60(TB) leukemia
  TGI: > 100 µM
HOP-18 NSCLC
  TGI: > 100 µM
HOP-62 NSCLC
  TGI: > 100 µM
HOP-92 NSCLC
  TGI: > 100 µM
HT29 colon
  TGI: > 100 µM
IGROV1 ovarian
  TGI: > 100 µM
K-562 leukemia
  TGI: > 100 µM
KM12 colon
  TGI: > 100 µM
KM20L2 colon
  TGI: > 100 µM
LOX IMVI melanoma
  TGI: > 100 µM
LXFL 529 NSCLC
  TGI: > 100 µM
M14 melanoma
  TGI: > 100 µM
M19-MEL melanoma
  TGI: > 100 µM
MALME-3M melanoma
  TGI: > 100 µM
NCI-H226 lung
  TGI: > 100 µM
NCI-H23 lung
  TGI: > 100 µM
NCI-H460 lung
  TGI: > 100 µM
NCI-H522 lung
  TGI: > 100 µM
OVCAR-3 ovarian
  TGI: > 100 µM
OVCAR-4 ovarian
  TGI: > 100 µM
OVCAR-5 ovarian
  TGI: > 100 µM
OVCAR-8 ovarian
  TGI: > 100 µM
RPMI-8226 leukemia
  TGI: > 100 µM
RXF 393 renal
  TGI: > 100 µM
RXF-631 renal
  TGI: > 100 µM
SF-268 CNS
  TGI: > 100 µM
SF-295 CNS
  TGI: > 100 µM
SF-539 CNS
  TGI: > 100 µM
SK-MEL-28 melanoma
  TGI: > 100 µM
SK-MEL-5 melanoma
  TGI: > 100 µM
SK-OV-3 ovarian
  TGI: > 100 µM
SN12C renal
  TGI: > 100 µM
SNB-19 CNS
  TGI: > 100 µM
SNB-75 CNS
  TGI: > 100 µM
SNB-78 CNS
  TGI: > 100 µM
SR leukemia
  TGI: > 100 µM
SW-620 colon
  TGI: > 100 µM
TK-10 renal
  TGI: > 100 µM
U251 CNS
  TGI: > 100 µM
UACC-257 melanoma
  TGI: > 100 µM
UACC-62 melanoma
  TGI: > 100 µM
UO-31 renal
  TGI: > 100 µM
XF 498 CNS
  TGI: > 100 µM

## O=C1C2C(C(=O)N1c1ccccc1)C1(Br)c3ccccc3C2(Br)C2C(=O)N(c3ccccc3)C(=O)C21 (stereo not given)
786-0 renal
  TGI: > 31.6 µM
A498 renal
  TGI: > 100 µM
A549 NSCLC
  TGI: > 31.6 µM
ACHN renal
  TGI: > 31.6 µM
CAKI-1 renal
  TGI: > 100 µM
CCRF-CEM leukemia
  TGI: > 31.6 µM
COLO 205 colon
  TGI: > 31.6 µM
DLD-1 colon
  TGI: > 31.6 µM
DMS 114 small cell lung
  TGI: > 31.6 µM
DMS 273 small cell lung
  TGI: > 31.6 µM
EKVX NSCLC
  TGI: > 31.6 µM
HCC-2998 colon
  TGI: > 31.6 µM
HCT-116 colon
  TGI: > 31.6 µM
HCT-15 colon
  TGI: > 31.6 µM
HL-60(TB) leukemia
  TGI: > 31.6 µM
HOP-18 NSCLC
  TGI: > 31.6 µM
HT29 colon
  TGI: > 31.6 µM
IGROV1 ovarian
  TGI: > 31.6 µM
K-562 leukemia
  TGI: > 31.6 µM
KM12 colon
  TGI: > 31.6 µM
KM20L2 colon
  TGI: > 31.6 µM
LOX IMVI melanoma
  TGI: > 31.6 µM
LXFL 529 NSCLC
  TGI: > 31.6 µM
M14 melanoma
  TGI: > 31.6 µM
M19-MEL melanoma
  TGI: > 31.6 µM
MALME-3M melanoma
  TGI: > 31.6 µM
MOLT-4 leukemia
  TGI: > 31.6 µM
NCI-H226 lung
  TGI: > 31.6 µM
NCI-H23 lung
  TGI: > 31.6 µM
NCI-H460 lung
  TGI: > 31.6 µM
OVCAR-3 ovarian
  TGI: > 31.6 µM
OVCAR-4 ovarian
  TGI: > 100 µM
OVCAR-5 ovarian
  TGI: > 31.6 µM
OVCAR-8 ovarian
  TGI: > 100 µM
RPMI-8226 leukemia
  TGI: > 31.6 µM
RXF 393 renal
  TGI: 27.1 µM
RXF-631 renal
  TGI: > 100 µM
SF-268 CNS
  TGI: > 31.6 µM
SF-295 CNS
  TGI: > 100 µM
SF-539 CNS
  TGI: > 31.6 µM
SK-MEL-2 melanoma
  TGI: > 31.6 µM
SK-MEL-28 melanoma
  TGI: > 31.6 µM
SK-MEL-5 melanoma
  TGI: > 31.6 µM
SK-OV-3 ovarian
  TGI: > 100 µM
SN12C renal
  TGI: > 31.6 µM
SNB-19 CNS
  TGI: > 31.6 µM
SNB-75 CNS
  TGI: > 31.6 µM
SNB-78 CNS
  TGI: > 31.6 µM
SW-620 colon
  TGI: > 31.6 µM
TK-10 renal
  TGI: > 31.6 µM
U251 CNS
  TGI: > 31.6 µM
UACC-257 melanoma
  TGI: > 31.6 µM
UACC-62 melanoma
  TGI: > 31.6 µM
UO-31 renal
  TGI: > 31.6 µM
XF 498 CNS
  TGI: > 100 µM
